Biological target: T1, human mPGES-1 (Homo sapiens, UniProt O14684)
T1 construct: made in house; host or cells: FreeStyle CHO-S cells (Chinese hamster ovary), transient transfection with pcDNA3.1(+)/human mPGES-1; microsome fraction used
T1 sequence (O14684 1-152): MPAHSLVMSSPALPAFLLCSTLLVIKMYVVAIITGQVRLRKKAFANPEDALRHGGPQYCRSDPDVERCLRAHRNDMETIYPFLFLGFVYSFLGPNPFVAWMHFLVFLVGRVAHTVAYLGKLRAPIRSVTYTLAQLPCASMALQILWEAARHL
Test: Evaluation of human mPGES-1 enzyme inhibitory activity (PGE2 measured by HTRF, microsome fraction of CHO-S cells expressing human mPGES-1)
Type: biochemical
Conditions: IC50 value; microsome fraction of CHO-S cells expressing human mPGES-1, PGE2 by HTRF
Outline: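 Enzyme source: microsomes from CHO-S cells transfected with human mPGES-1 and cultured 48 hr, diluted to 5 μg/mL protein in reduced GSH (12.5 mmol/L KPB solution). Test articles were in 0.1 mol/L potassium phosphate pH 7.4, final DMSO 2% (v/v). PGE2 formed was quantified by HTRF.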

Structure (SMILES)	IC50
Cc1cccc(C)c1-c1nc(O)nc(-c2ccc(O[C@H](C)c3ccccc3)cc2)n1 [Example 2-44]	0.563 µM
Oc1nc(-c2ccc(C(F)(F)F)cc2)nc(-c2c(Cl)cccc2OCc2ccccn2)n1 [Example 2-45]	0.012 µM
Cc1cccc(C)c1-c1nc(O)nc(-c2ccc(OC3CCCCC3)cc2)n1 [Example 2-46]	0.494 µM
Cc1cccc(C)c1-c1nc(O)nc(-c2ccc(OC3CCC(C)(C)CC3)cc2)n1 [Example 2-47]	0.295 µM
Cc1cccc(C)c1-c1nc(O)nc(-c2ccc(Cl)c(OCc3ccccc3)c2)n1 [Example 2-48]	0.019 µM
CCc1ccccc1COc1cccc(Cl)c1-c1nc(O)nc(-c2ccc(C(F)(F)F)cc2)n1 [Example 2-49]	0.014 µM
Cc1cccc(C)c1-c1nc(O)nc(-c2ccc(OCC3CCCC3)cc2)n1 [Example 2-50]	0.061 µM
Cc1cccc(C)c1-c1nc(O)nc(-c2ccc(OCC3CCC3)cc2)n1 [Example 2-51]	0.09 µM
CCOc1cc(-c2nc(O)nc(-c3c(C)cccc3C)n2)ccc1Cl [Example 2-52]	0.1 µM
Cc1ccccc1COc1cccc(Cl)c1-c1nc(O)nc(-c2ccc(C(F)(F)F)cc2)n1 [Example 2-53]	0.011 µM
CCc1cc(-c2nc(O)nc(-c3c(C)cccc3C)n2)ccc1Cl [Example 2-54]	0.17 µM
Cc1cccc(COc2cccc(Cl)c2-c2nc(O)nc(-c3ccc(C(F)(F)F)cc3)n2)c1 [Example 2-55]	0.01 µM
Cc1ccc(COc2cccc(Cl)c2-c2nc(O)nc(-c3ccc(C(F)(F)F)cc3)n2)cc1 [Example 2-56]	0.018 µM
Cc1cccc(C)c1-c1nc(O)nc(-c2ccc(OCC3CCCCCC3)cc2)n1 [Example 2-57]	0.025 µM
Cc1cccc(C)c1-c1nc(O)nc(-c2ccc(OCC(C)(C)C)cc2)n1 [Example 2-58]	0.145 µM
Cc1cccc(C)c1-c1nc(O)nc(-c2ccc(OCc3ccccc3)nc2)n1 [Example 2-59]	0.095 µM
Oc1nc(-c2ccc(C(F)(F)F)cc2)nc(-c2c(Cl)cccc2OCc2cccnc2)n1 [Example 2-60]	0.121 µM
Oc1nc(-c2ccc(C(F)(F)F)cc2)nc(-c2c(Cl)cccc2OCc2ccncc2)n1 [Example 2-61]	0.092 µM
CC(C)(C)COc1ccc(-c2nc(O)nc(-c3c(Cl)cccc3OCc3ccccn3)n2)cc1 [Example 2-62]	0.0093 µM

Structure (SMILES)	IC50
C[C@@H](Oc1cccc(Cl)c1-c1nc(O)nc(-c2ccc(OCC(C)(C)C)cc2)n1)c1ccccn1 [Example 2-63]	0.259 µM
C[C@H](Oc1cccc(Cl)c1-c1nc(O)nc(-c2ccc(OCC(C)(C)C)cc2)n1)c1ccccn1 [Example 2-64]	0.012 µM
C[C@H](Oc1cccc(Cl)c1-c1nc(O)nc(-c2ccc(OCC(C)(C)C)cc2)n1)c1ccccc1 [Example 2-65]	0.151 µM
CC(C)COc1ccc(-c2nc(O)nc(-c3c(Cl)cccc3OCc3ccccn3)n2)cc1 [Example 2-66]	0.016 µM
CC(C)COc1ccc(-c2nc(O)nc(-c3c(Cl)cccc3O[C@@H](C)c3ccccn3)n2)cc1 [Example 2-67]	0.027 µM
CC(C)(C)COc1ccc(-c2nc(O)nc(-c3c(Cl)cccc3OCc3ncccn3)n2)cc1 [Example 2-68]	0.672 µM
CCCCCOc1ccc(-c2nc(O)nc(-c3c(C)cccc3C)n2)cc1 [Example 2-69]	0.084 µM
CCCCOc1ccc(-c2nc(O)nc(-c3c(C)cccc3C)n2)cc1 [Example 2-70]	0.158 µM
Cc1cccc(C)c1-c1nc(O)nc(-c2ccc(OCCC(C)C)cc2)n1 [Example 2-71]	0.172 µM
Cc1cccnc1COc1cccc(Cl)c1-c1nc(O)nc(-c2ccc(OCC(C)C)cc2)n1 [Example 2-72]	0.283 µM
CCC(CC)Oc1ccc(-c2nc(O)nc(-c3c(C)cccc3C)n2)cc1 [Example 2-73]	0.402 µM
Cc1cccc(C)c1-c1nc(O)nc(-c2ccc(OCC3CC3)cc2)n1 [Example 2-74]	0.424 µM
Oc1nc(-c2ccc(OCC3CCC3)cc2)nc(-c2c(Cl)cccc2OCc2ccccn2)n1 [Example 2-75]	0.0037 µM
Oc1nc(-c2ccc(C#CC3CCCCC3)cc2)nc(-c2c(Cl)cccc2OCc2ccccn2)n1 [Example 2-76]	0.0058 µM
Oc1nc(-c2ccc(OCC3CCCCC3)cc2)nc(-c2c(Cl)cccc2OCc2ccccn2)n1 [Example 2-77]	0.0037 µM
Oc1nc(-c2ccc(C#Cc3ccccc3)cc2)nc(-c2c(Cl)cccc2OCc2ccccn2)n1 [Example 2-80]	0.0016 µM
Oc1nc(-c2ccc(C#CC3CCCC3)cc2)nc(-c2c(Cl)cccc2OCc2ccccn2)n1 [Example 2-81]	0.0027 µM
Oc1nc(-c2ccc(C#CC3CC3)cc2)nc(-c2c(Cl)cccc2OCc2ccccn2)n1 [Example 2-82]	0.0017 µM
Oc1nc(-c2ccc(C#CC3CCCCC3)cc2)nc(-c2c(Cl)cccc2OCc2ccc(C(F)(F)F)cn2)n1 [Example 2-83]	0.051 µM

Structure (SMILES)	IC50
CC1(C)CCC(Oc2ccc(-c3nc(O)nc(-c4c(Cl)cccc4OCc4ccccn4)n3)cc2)CC1 [Example 2-84]	0.017 µM
C[C@H](Oc1cccc(Cl)c1-c1nc(O)nc(-c2ccc(C#Cc3ccccc3)cc2)n1)c1ccccn1 [Example 2-86]	0.0022 µM
Cc1cccc(COc2cccc(Cl)c2-c2nc(O)nc(-c3ccc(C#Cc4ccccc4)cc3)n2)n1 [Example 2-87]	0.0018 µM
N#Cc1cccc(OCc2ccccn2)c1-c1nc(O)nc(-c2ccc(C#Cc3ccccc3)cc2)n1 [Example 2-88]	0.002 µM
Oc1nc(-c2ccc(OCC3CC3)cc2)nc(-c2c(Cl)cccc2OCc2ccccn2)n1 [Example 2-89]	0.018 µM
CN(C)C(=O)COc1cccc(Cl)c1-c1nc(O)nc(-c2ccc(OCC3CC3)cc2)n1 [Example 2-90]	2.1 µM
Oc1nc(-c2ccc(C#CC3CCCC3)cc2)nc(-c2c(Cl)cccc2OCc2ccccn2)n1 [Example 2-91]	0.0016 µM
Oc1nc(-c2ccc(C#CC3CCCCC3)cc2)nc(-c2c(Cl)cccc2OCc2ccccn2)n1 [Example 2-92]	0.0044 µM
Oc1nc(-c2ccc(OCC3CC3)nc2)nc(-c2c(Cl)cccc2OCc2ccccc2)n1 [Example 2-93]	0.038 µM
CC(C)(C)C#Cc1ccc(-c2nc(O)nc(-c3c(Cl)cccc3OCc3ccccn3)n2)cc1 [Example 2-94]	0.0041 µM
Oc1nc(-c2ccc(C#Cc3ccccc3)cc2)nc(-c2c(OCc3ccccn3)cccc2C(F)(F)F)n1 [Example 2-95]	0.005 µM
Oc1nc(-c2ccc(C#Cc3ccccn3)cc2)nc(-c2c(Cl)cccc2OCc2ccccc2)n1 [Example 2-96]	0.021 µM
Oc1nc(-c2ccc(C#Cc3ccccn3)cc2)nc(-c2c(Cl)cccc2OCc2ccccn2)n1 [Example 2-97]	0.0089 µM
Cc1cccc(COc2cccc(C(F)(F)F)c2-c2nc(O)nc(-c3ccc(C#Cc4ccccc4)nc3)n2)n1 [Example 2-99]	0.0017 µM
Cc1ccccc1C#Cc1ccc(-c2nc(O)nc(-c3c(OCc4ccccn4)cccc3C(F)(F)F)n2)cc1 [Example 2-100]	0.0056 µM
Cc1cccc(C#Cc2ccc(-c3nc(O)nc(-c4c(OCc5ccccn5)cccc4C(F)(F)F)n3)cc2)c1 [Example 2-101]	0.0065 µM
Cc1ccc(C#Cc2ccc(-c3nc(O)nc(-c4c(OCc5ccccn5)cccc4C(F)(F)F)n3)cc2)cc1 [Example 2-102]	0.0059 µM
Oc1nc(-c2ccc(C#Cc3ccccc3C(F)(F)F)cc2)nc(-c2c(OCc3ccccn3)cccc2C(F)(F)F)n1 [Example 2-103]	0.01 µM

Reference: patent US12398111B2, “Triazine compounds and pharmaceutical use thereof” (Japan Tobacco Inc., priority 2014, dated 2025)
